Results taken from ChEMBL document CHEMBL4152332, “Discovery and synthesis of novel magnolol derivatives with potent anticancer activity in non-small cell lung cancer” (Eur J Med Chem, 2018).

Key:
Mus musculus [1] = assay: Toxicity in Balb/c mouse xenografted with human NCI-H1975 cells assessed as effect on kidney morphology at 5 to 20 mg/kg, iv treated every 2 days for 9 days; format: organism-based; conditions: in vivo
Mus musculus [2] = assay: Toxicity in Balb/c mouse xenografted with human NCI-H1975 cells assessed as change in body weight at 10 mg/kg, iv treated every 2 days for 9 days and measured every 2 days after compound dosing ( Rvb = 2.89%); format: organism-based; conditions: in vivo
HCC827 [3] = assay: Antiproliferative activity against human HCC827 cells after 72 hrs by MTT assay; format: functional, cell-based; conditions: HCC827, 72 h
NCI-H460 [4] = assay: Potency index, ratio of IC50 for honokiol to IC50 for test compound for antiproliferative activity against human H460 cells after 72 hrs by MTT assay; format: functional
PC-9 = assay: Antiproliferative activity against human PC9 cells after 72 hrs by MTT assay; format: functional, cell-based; conditions: PC-9, 72 h
Mus musculus [5] = assay: Toxicity in Balb/c mouse xenografted with human NCI-H1975 cells assessed as change in body weight at 5 mg/kg, iv treated every 2 days for 9 days and measured every 2 days after compound dosing ( Rvb = 2.89%); format: organism-based; conditions: in vivo
NCI-H1975 [6] = assay: Antitumor activity against human NCI-H1975 cells xenografted in Balb/c mouse assessed as change in tumor mass at 20 mg/kg, iv treated every 2 days for 9 days and measured every 2 days after compound dosing relative to control; format: functional
NCI-H1975 [7] = assay: Induction of apoptosis in human NCI-H1975 cells assessed as early apoptotic cells at 10 uM after 48 hrs by annexin V/FITC-propidium iodide staining-based flow cytometric method ( Rvb = 6.09%); format: functional
NCI-H1975 [8] = assay: Antiproliferative activity against human NCI-H1975 cells after 72 hrs by MTT assay; format: functional, cell-based; conditions: NCI-H1975, 72 h
NCI-H1975 [9] = assay: Cell cycle arrest in human NCI-H1975 cells assessed as reduction in accumulation at S phase after 24 hrs by propidium iodide staining-based flow cytometric analysis; format: functional
NCI-H1975 [10] = assay: Cell cycle arrest in human NCI-H1975 cells assessed as accumulation at G0/G1 phase at 5 uM after 24 hrs by propidium iodide staining-based flow cytometric analysis (reference value: 56.11%); format: functional
[11] = Antiproliferative activity against human SPC-A1 cells after 72 hrs by MTT assay; format: functional, cell-based; conditions: SPCA1, 72 h
Mus musculus [12] = assay: Toxicity in Balb/c mouse xenografted with human NCI-H1975 cells assessed as change in body weight at 20 mg/kg, iv treated every 2 days for 9 days and measured every 2 days after compound dosing ( Rvb = 2.89%); format: organism-based; conditions: in vivo
Mus musculus [13] = assay: Toxicity in Balb/c mouse xenografted with human NCI-H1975 cells assessed as change in body weight at 30 mg/kg, po qd treated for 18 days and measured every 2 days after compound dosing ( Rvb = 2.89%); format: organism-based; conditions: in vivo
HUVEC = assay: Antimigratory activity against HUVEC after 24 to 48 hrs by phase contrast/fluorescence microscopic analysis; format: functional, cell-based; conditions: Homo sapiens
NCI-H1975 [14] = assay: Cell cycle arrest in human NCI-H1975 cells assessed as accumulation at S phase at 5 uM after 24 hrs by propidium iodide staining-based flow cytometric analysis (reference value: 22.93%); format: functional
NCI-H1975 [15] = assay: Cell cycle arrest in human NCI-H1975 cells assessed as accumulation at G2/M phase at 20 uM after 24 hrs by propidium iodide staining-based flow cytometric analysis (reference value: 20.11%); format: functional
NCI-H1975 [16] = assay: Induction of apoptosis in human NCI-H1975 cells assessed as decrease in cyclin E level after 24 hrs by Western blot analysis; format: functional, cell-based
NCI-H1975 [17] = assay: Cell cycle arrest in human NCI-H1975 cells assessed as accumulation at S phase at 10 uM after 24 hrs by propidium iodide staining-based flow cytometric analysis (reference value: 22.93%); format: functional
NCI-H1975 [18] = assay: Cell cycle arrest in human NCI-H1975 cells assessed as accumulation at G2/M phase at 5 uM after 24 hrs by propidium iodide staining-based flow cytometric analysis (reference value: 20.11%); format: functional
NCI-H1975 [19] = assay: Antitumor activity against human NCI-H1975 cells xenografted in Balb/c mouse assessed as change in tumor mass at 30 mg/kg, po qd treated for 18 days and measured every 2 days after compound dosing relative to control; format: functional
NCI-H1975 [20] = assay: Induction of apoptosis in human NCI-H1975 cells assessed as viable cells at 20 uM after 48 hrs by annexin V/FITC-propidium iodide staining-based flow cytometric method ( Rvb = 82.5%); format: functional; conditions: NCI-H1975, 48 h, read-out: Activity
NCI-H460 [21] = assay: Potency index, ratio of IC50 for magnolol to IC50 for test compound for antiproliferative activity against human H460 cells after 72 hrs by MTT assay; format: functional
NCI-H1975 [22] = assay: Cell cycle arrest in human NCI-H1975 cells assessed as increase in accumulation at G0/G1 phase after 24 hrs by propidium iodide staining-based flow cytometric analysis; format: functional
NCI-H1975 [23] = assay: Induction of apoptosis in human NCI-H1975 cells assessed as necrotic cells at 20 uM after 48 hrs by annexin V/FITC-propidium iodide staining-based flow cytometric method ( Rvb = 1.01%); format: functional
Mus musculus [24] = assay: Toxicity in Balb/c mouse xenografted with human NCI-H1975 cells assessed as change in body weight at 10 mg/kg, po qd treated for 18 days and measured every 2 days after compound dosing ( Rvb = 2.89%); format: organism-based; conditions: in vivo
Mus musculus [25] = assay: Toxicity in Balb/c mouse xenografted with human NCI-H1975 cells assessed as effect on lung size at 5 to 20 mg/kg, iv treated every 2 days for 9 days; format: organism-based; conditions: in vivo
NCI-H1975 [26] = assay: Cell cycle arrest in human NCI-H1975 cells assessed as accumulation at G0/G1 phase at 20 uM after 24 hrs by propidium iodide staining-based flow cytometric analysis (reference value: 56.11%); format: functional
NCI-H1975 [27] = assay: Cell cycle arrest in human NCI-H1975 cells assessed as reduction in accumulation at G2/M phase after 24 hrs by propidium iodide staining-based flow cytometric analysis; format: functional
Mus musculus [28] = assay: Toxicity in Balb/c mouse xenografted with human NCI-H1975 cells assessed as change in body weight at 100 mg/kg, po qd treated for 18 days and measured every 2 days after compound dosing ( Rvb = 2.89%); format: organism-based; conditions: in vivo
NCI-H358 = assay: Antiproliferative activity against human NCI-H358 cells after 72 hrs by MTT assay; format: functional, cell-based; conditions: NCI-H358, 72 h
Mus musculus [29] = assay: Toxicity in Balb/c mouse implanted with mouse C26 cells assessed as mouse death at 100 mg/kg, po qd treated for 10 days; format: organism-based; conditions: in vivo, 240 h
Mus musculus [30] = assay: Toxicity in Balb/c mouse xenografted with human NCI-H1975 cells assessed as mouse death at 10 to 100 mg/kg, po qd treated for 18 days and measured every 2 days after compound dosing; format: organism-based; conditions: in vivo
HCC827 [31] = assay: Potency index, ratio of IC50 for honokiol to IC50 for test compound for antiproliferative activity against human HCC827 cells after 72 hrs by MTT assay; format: functional
NCI-H1975 [32] = assay: Induction of apoptosis in human NCI-H1975 cells assessed as viable cells at 5 uM after 48 hrs by annexin V/FITC-propidium iodide staining-based flow cytometric method ( Rvb = 82.5%); format: functional; conditions: NCI-H1975, 48 h, read-out: Activity

For C=CCc1ccc(O)c(-c2cc(CC=C)cc(CN3CCC(N)CC3)c2O)c1, the Activity (Mus musculus [1]) was “Non-Toxic”, the Activity (Mus musculus [2]) was 8.89% and the IC50 (HCC827 [3]) was 5.01 µM. The “Ratio IC50” value (NCI-H460 [4]) was 4, the IC50 (PC-9) was 12.5 µM and the Activity (Mus musculus [5]) was 4.4%. For the same compound, the Activity (NCI-H1975 [6]) was 65.8%, the Activity (NCI-H1975 [7]) was 10.1% and the IC50 (NCI-H1975 [8]) was 5.61 µM. For the same compound, the Activity (NCI-H1975 [9]) was “Dose-dependent effect”, the Activity (NCI-H1975 [10]) was 62.26% and the IC50 [11] was 7.89 µM. For the same compound, the Activity (Mus musculus [12]) was 8.23%, the Activity (Mus musculus [13]) was 8.85% and the Activity (HUVEC) was “Dose-dependent effect”. The Activity (NCI-H1975 [14]) was 22.39%, the Activity (NCI-H1975 [15]) was 6.13% and the Activity (NCI-H1975 [16]) was “Dose-dependent effect”. The Activity (NCI-H1975 [17]) was 18.57%, the Activity (NCI-H1975 [18]) was 13.41% and the Activity (NCI-H1975 [19]) was 59.3%. The viability at 20 µM (NCI-H1975 [20]) was 3.75%, the “Ratio IC50” value (NCI-H460 [21]) was 8 and the Activity (NCI-H1975 [22]) was “Dose-dependent effect”. For the same compound, the Activity (NCI-H1975 [23]) was 0.35%, the Activity (Mus musculus [24]) was 13.3% and the Activity (Mus musculus [25]) was “Non-Toxic”. For the same compound, the Activity (NCI-H1975 [26]) was 79.45%, the Activity (NCI-H1975 [27]) was “Dose-dependent effect” and the Activity (Mus musculus [28]) was -5.72%. The IC50 (NCI-H358) was 7.43 µM, the Activity (Mus musculus [29]) was “Non-Toxic” and the Activity (Mus musculus [30]) was “Non-Toxic”. For the same compound, the “Ratio IC50” value (HCC827 [31]) was 4 and the viability at 5 µM (NCI-H1975 [32]) was 66.5%.
